# Key:
# Format in all cases: in vivo, human
# [1] = system: serum uric acid; assay: Serum uric acid in postmenopausal women, single- and multiple-dose study (Comparative Example 4); parameters: Serum uric acid, baseline adjusted data, Median / Serum uric acid, unadjusted data, Mean / Serum uric acid, unadjusted data, Median / Serum uric acid, baseline adjusted data, Mean: unit not given here
# Description: In a double-blind, randomized, placebo-controlled, single- and multiple-dose study in postmenopausal women with enantiomerically-pure (R)-tofisopam, patients were treated with placebo, 100 mg once a day (qd) of (R)-tofisopam, or 200 mg qd of (R)-tofisopam for the first day of the study, and then with placebo, 100 mg twice a day (bid) of (R)-tofisopam, or 200 mg bid of (R)-tofisopam for Days 2 to 7 of the study.
# [2] = system: serum uric acid; assay: Serum uric acid in male and female outpatients with irritable bowel syndrome, 3 months (Comparative Example 5); parameters: Serum uric acid Actual Value, Mean / Serum uric acid Change from Baseline, Mean / Serum uric acid Actual Value, Median / Serum uric acid Change from Baseline, Median: unit not given here; conditions: for Serum uric acid Actual Value, Mean / Serum uric acid Actual Value, Median / Serum uric acid Change from Baseline, Mean / Serum uric acid Change from Baseline, Median: men and women with irritable bowel syndrome
# Description: The study lasted 3 months, and patients were treated with 200 mg of (R)-tofisopam twice a day (bid).
# [3] = system: serum uric acid; assay: Serum uric acid in female outpatients with irritable bowel syndrome, 3 months (Comparative Example 6); parameters: Serum uric acid Actual Value, Mean / Serum uric acid Change from Baseline, Mean / Serum uric acid Actual Value, Median / Serum uric acid Change from Baseline, Median: unit not given here; conditions: for Serum uric acid Actual Value, Mean / Serum uric acid Actual Value, Median / Serum uric acid Change from Baseline, Mean / Serum uric acid Change from Baseline, Median: women with irritable bowel syndrome
# Description: The study lasted 3 months, and patients were treated with 100 mg, 200 mg or 300 mg of enantiomerically-pure (R)-tofisopam twice a day.
# [4] = 100 mg bid (qd on D 1, bid on D 2 to D 7), time 6 h
# [5] = 100 mg bid (qd on D 1, bid on D 2 to D 7), time 24 h
# [6] = 100 mg bid (qd on D 1, bid on D 2 to D 7), time 72 h
# [7] = 100 mg bid (qd on D 1, bid on D 2 to D 7), time 143 h
# [8] = 100 mg bid (qd on D 1, bid on D 2 to D 7), time 168 h
# [9] = 200 mg bid (qd on D 1, bid on D 2 to D 7), time 6 h
# [10] = 200 mg bid (qd on D 1, bid on D 2 to D 7), time 24 h
# [11] = 200 mg bid (qd on D 1, bid on D 2 to D 7), time 72 h
# [12] = 200 mg bid (qd on D 1, bid on D 2 to D 7), time 143 h
# [13] = 200 mg bid (qd on D 1, bid on D 2 to D 7), time 168 h
smiles,measurement,setting,value
CC[C@H]1C(C)=NN=C(c2ccc(OC)c(OC)c2)c2cc(OC)c(OC)cc21 [(R)-tofisopam],"Serum uric acid, baseline adjusted data, Mean",[1]; [4],0
same,"Serum uric acid, baseline adjusted data, Median",[1]; [4],0
same,"Serum uric acid, unadjusted data, Mean",[1]; [4],0.19
same,"Serum uric acid, unadjusted data, Median",[1]; [4],0.19
same,"Serum uric acid, baseline adjusted data, Mean",[1]; [5],0.01
same,"Serum uric acid, baseline adjusted data, Median",[1]; [5],0.01
same,"Serum uric acid, unadjusted data, Mean",[1]; [5],0.20
same,"Serum uric acid, unadjusted data, Median",[1]; [5],0.21
same,"Serum uric acid, baseline adjusted data, Mean",[1]; [6],0.01
same,"Serum uric acid, baseline adjusted data, Median",[1]; [6],0.01
same,"Serum uric acid, unadjusted data, Mean",[1]; [6],0.20
same,"Serum uric acid, unadjusted data, Median",[1]; [6],0.21
same,"Serum uric acid, baseline adjusted data, Mean",[1]; [7],0.01
same,"Serum uric acid, baseline adjusted data, Median",[1]; [7],0.01
same,"Serum uric acid, unadjusted data, Mean",[1]; [7],0.20
same,"Serum uric acid, unadjusted data, Median",[1]; [7],0.20
same,"Serum uric acid, baseline adjusted data, Mean",[1]; [8],0.03
same,"Serum uric acid, baseline adjusted data, Median",[1]; [8],0.03
same,"Serum uric acid, unadjusted data, Mean",[1]; [8],0.23
same,"Serum uric acid, unadjusted data, Median",[1]; [8],0.23
same,Effect on serum uric acid levels,"[1]; 100 mg or 200 mg qd first day, bid Days 2 to 7",does not decrease
same,"Serum uric acid, baseline adjusted data, Mean",[1]; [9],−0.01
same,"Serum uric acid, baseline adjusted data, Median",[1]; [9],−0.01
same,"Serum uric acid, unadjusted data, Mean",[1]; [9],0.21
same,"Serum uric acid, unadjusted data, Median",[1]; [9],0.21
same,"Serum uric acid, baseline adjusted data, Mean",[1]; [10],−0.01
same,"Serum uric acid, baseline adjusted data, Median",[1]; [10],−0.01
same,"Serum uric acid, unadjusted data, Mean",[1]; [10],0.21
same,"Serum uric acid, unadjusted data, Median",[1]; [10],0.21
same,"Serum uric acid, baseline adjusted data, Mean",[1]; [11],0
same,"Serum uric acid, baseline adjusted data, Median",[1]; [11],0
same,"Serum uric acid, unadjusted data, Mean",[1]; [11],0.22
same,"Serum uric acid, unadjusted data, Median",[1]; [11],0.22
same,"Serum uric acid, baseline adjusted data, Mean",[1]; [12],−0.01
same,"Serum uric acid, baseline adjusted data, Median",[1]; [12],0
same,"Serum uric acid, unadjusted data, Mean",[1]; [12],0.21
same,"Serum uric acid, unadjusted data, Median",[1]; [12],0.21
same,"Serum uric acid, baseline adjusted data, Mean",[1]; [13],0.01
same,"Serum uric acid, baseline adjusted data, Median",[1]; [13],0.01
same,"Serum uric acid, unadjusted data, Mean",[1]; [13],0.22
same,"Serum uric acid, unadjusted data, Median",[1]; [13],0.23
same,Serum uric acid levels over time,[1]; up to 168 hours (7 days) after initiation of treatment,remained constant
same,"Serum uric acid Actual Value, Mean","[2]; 200 mg bid, 3 months Endpoint",5.20
same,"Serum uric acid Actual Value, Median","[2]; 200 mg bid, 3 months Endpoint",5.10
same,"Serum uric acid Change from Baseline, Mean","[2]; 200 mg bid, 3 months Endpoint",−0.06
same,"Serum uric acid Change from Baseline, Median","[2]; 200 mg bid, 3 months Endpoint",0.00
same,"Serum uric acid Actual Value, Mean","[2]; 200 mg bid, Day 7",5.18
same,"Serum uric acid Actual Value, Median","[2]; 200 mg bid, Day 7",5.00
same,"Serum uric acid Change from Baseline, Mean","[2]; 200 mg bid, Day 7",−0.05
same,"Serum uric acid Change from Baseline, Median","[2]; 200 mg bid, Day 7",0.00
same,"Serum uric acid Actual Value, Mean","[2]; 200 mg bid, Day 14",5.22
same,"Serum uric acid Actual Value, Median","[2]; 200 mg bid, Day 14",5.05
same,"Serum uric acid Change from Baseline, Mean","[2]; 200 mg bid, Day 14",−0.01
same,"Serum uric acid Change from Baseline, Median","[2]; 200 mg bid, Day 14",−0.10
same,"Serum uric acid Actual Value, Mean","[2]; 200 mg bid, Day 28",5.18
same,"Serum uric acid Actual Value, Median","[2]; 200 mg bid, Day 28",5.00
same,"Serum uric acid Change from Baseline, Mean","[2]; 200 mg bid, Day 28",−0.07
same,"Serum uric acid Change from Baseline, Median","[2]; 200 mg bid, Day 28",−0.10
same,"Serum uric acid Actual Value, Mean","[2]; 200 mg bid, Day 42",5.46
same,"Serum uric acid Actual Value, Median","[2]; 200 mg bid, Day 42",5.70
same,"Serum uric acid Change from Baseline, Mean","[2]; 200 mg bid, Day 42",0.12
same,"Serum uric acid Change from Baseline, Median","[2]; 200 mg bid, Day 42",0.20
same,"Serum uric acid Actual Value, Mean","[2]; 200 mg bid, Day 56",5.40
same,"Serum uric acid Actual Value, Median","[2]; 200 mg bid, Day 56",5.20
same,"Serum uric acid Change from Baseline, Mean","[2]; 200 mg bid, Day 56",0.02
same,"Serum uric acid Change from Baseline, Median","[2]; 200 mg bid, Day 56",0.00
same,"Serum uric acid Actual Value, Mean","[2]; 200 mg bid, Day 84",5.37
same,"Serum uric acid Actual Value, Median","[2]; 200 mg bid, Day 84",5.30
same,"Serum uric acid Change from Baseline, Mean","[2]; 200 mg bid, Day 84",0.03
same,"Serum uric acid Change from Baseline, Median","[2]; 200 mg bid, Day 84",0.10
same,Effect on serum uric acid levels,"[2]; 200 mg twice a day (bid), 3 months, male and female outpatients with irritable bowel syndrome",does not decrease
same,Serum uric acid levels over time,"[2]; up to 3 months after initiation of treatment, 200 mg bid",remained constant
same,"Serum uric acid Actual Value, Mean","[3]; 100 mg BID, 3 months Endpoint",4.94
same,"Serum uric acid Actual Value, Median","[3]; 100 mg BID, 3 months Endpoint",4.90
same,"Serum uric acid Change from Baseline, Mean","[3]; 100 mg BID, 3 months Endpoint",0.22
same,"Serum uric acid Change from Baseline, Median","[3]; 100 mg BID, 3 months Endpoint",0.20
same,"Serum uric acid Actual Value, Mean","[3]; 100 mg BID, Week 12",4.91
same,"Serum uric acid Actual Value, Median","[3]; 100 mg BID, Week 12",4.80
same,"Serum uric acid Change from Baseline, Mean","[3]; 100 mg BID, Week 12",0.23
same,"Serum uric acid Change from Baseline, Median","[3]; 100 mg BID, Week 12",0.20
same,Effect on serum uric acid levels,"[3]; 100 mg, 200 mg or 300 mg twice a day, 3 months, female outpatients with irritable bowel syndrome",does not decrease
same,"Serum uric acid Actual Value, Mean","[3]; 200 mg BID, 3 months Endpoint",4.82
same,"Serum uric acid Actual Value, Median","[3]; 200 mg BID, 3 months Endpoint",4.60
same,"Serum uric acid Change from Baseline, Mean","[3]; 200 mg BID, 3 months Endpoint",−0.19
same,"Serum uric acid Change from Baseline, Median","[3]; 200 mg BID, 3 months Endpoint",−0.20
same,"Serum uric acid Actual Value, Mean","[3]; 200 mg BID, Week 12",4.82
same,"Serum uric acid Actual Value, Median","[3]; 200 mg BID, Week 12",4.60
same,"Serum uric acid Change from Baseline, Mean","[3]; 200 mg BID, Week 12",−0.20
same,"Serum uric acid Change from Baseline, Median","[3]; 200 mg BID, Week 12",−0.20
same,"Serum uric acid Actual Value, Mean","[3]; 300 mg BID, 3 months Endpoint",5.04
same,"Serum uric acid Actual Value, Median","[3]; 300 mg BID, 3 months Endpoint",5.00
same,"Serum uric acid Change from Baseline, Mean","[3]; 300 mg BID, 3 months Endpoint",−0.05
same,"Serum uric acid Change from Baseline, Median","[3]; 300 mg BID, 3 months Endpoint",0.00
same,"Serum uric acid Actual Value, Mean","[3]; 300 mg BID, Week 12",5.02
same,"Serum uric acid Actual Value, Median","[3]; 300 mg BID, Week 12",4.95
same,"Serum uric acid Change from Baseline, Mean","[3]; 300 mg BID, Week 12",−0.06
same,"Serum uric acid Change from Baseline, Median","[3]; 300 mg BID, Week 12",−0.05
same,Serum uric acid levels over time,"[3]; up to 3 months after initiation of treatment, 100, 200 or 300 mg twice a day",remained constant
